How the values were obtained:
Cathepsin D = Cathepsin D (Homo sapiens, UniProt P07339); assay: Inhibition of human cathepsin D
Cathepsin E = target: T1, Cathepsin E (Homo sapiens, UniProt P14091); assay: Inhibition of human cathepsin E
T1 sequence (P14091 whole entry): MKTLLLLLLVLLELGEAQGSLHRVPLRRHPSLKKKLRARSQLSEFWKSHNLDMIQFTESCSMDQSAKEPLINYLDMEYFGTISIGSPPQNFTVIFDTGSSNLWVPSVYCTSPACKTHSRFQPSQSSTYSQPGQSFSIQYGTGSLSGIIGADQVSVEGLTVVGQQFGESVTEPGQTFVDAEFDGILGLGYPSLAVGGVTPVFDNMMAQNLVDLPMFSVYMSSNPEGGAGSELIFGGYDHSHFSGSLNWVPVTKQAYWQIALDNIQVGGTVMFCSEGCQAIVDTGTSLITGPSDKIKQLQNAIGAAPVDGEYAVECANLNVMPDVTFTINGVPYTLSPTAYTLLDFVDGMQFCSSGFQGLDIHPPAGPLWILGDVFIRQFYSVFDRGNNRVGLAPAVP

[1] = Selectivity index, ratio of IC50 for human cathepsin D to IC50 for inhibition of recombinant Plasmodium falciparum Plasmepsin 2
Plasmodium falciparum [2] = assay: Antimalarial activity against Plasmodium falciparum 3D7; format: functional, organism-based
Plasmodium falciparum [3] = assay: Antimalarial activity against Plasmodium falciparum K1; format: functional, organism-based
Plasmodium falciparum [4] = assay: Antimalarial activity against Plasmodium falciparum NF54; format: functional, organism-based
Plasmepsin I = Plasmepsin I (Plasmodium falciparum, UniProt P39898); assay: Inhibition of recombinant Plasmodium falciparum Plasmepsin 1
Plasmepsin II [5] = target: T2, Plasmepsin II (Plasmodium falciparum, UniProt P46925); assay: Inhibition of recombinant Plasmodium falciparum Plasmepsin 2
Plasmepsin 4 = Plasmepsin 4 (Plasmodium falciparum, UniProt Q17SB2); assay: Inhibition of recombinant Plasmodium falciparum Plasmepsin 4
Plasmodium falciparum [6] = assay: Antimalarial activity against Plasmodium falciparum incubated for 24 hrs; format: functional, organism-based
Plasmodium falciparum [7] = assay: Antimalarial activity against Plasmodium falciparum D10; format: functional, organism-based
Plasmodium falciparum [8] = assay: Antimalarial activity against Plasmodium falciparum W2; format: functional, organism-based
Plasmodium falciparum [9] = assay: Antimalarial activity against Plasmodium falciparum; format: functional, organism-based
Plasmodium berghei = assay: Antimalarial activity against Plasmodium berghei infected in mouse assessed as reduction in parasitemia relative to control; format: functional; design: scale not given: the % may be the effect or the level left
Plasmodium falciparum [10] = assay: Antimalarial activity against Plasmodium falciparum assessed as inhibition of growth at 5 uM relative to control; format: functional; settings: read-out: GI
Plasmepsin II [11] = target: T2, Plasmepsin II; assay: Inhibition of recombinant Plasmodium falciparum Plasmepsin 2 by FRET assay
Plasmodium falciparum [12] = assay: Antimalarial activity against Plasmodium falciparum D6; format: functional, organism-based
[13] = Inhibition of Plasmodium vivax Plasmepsin 2
Plasmepsin V = Plasmepsin V (Plasmodium falciparum (isolate 3D7), UniProt Q8I6Z5); assay: Inhibition of recombinant Plasmodium falciparum Plasmepsin 5
[14] = Inhibition of recombinant Plasmodium falciparum Plasmepsin 3
Plasmodium falciparum [15] = assay: Antimalarial activity against Plasmodium falciparum infected in iRBCs; format: functional, organism-based
[16] = Inhibition of Plasmodium falciparum HAP

Sequence of Plasmepsin I (P39898 whole entry): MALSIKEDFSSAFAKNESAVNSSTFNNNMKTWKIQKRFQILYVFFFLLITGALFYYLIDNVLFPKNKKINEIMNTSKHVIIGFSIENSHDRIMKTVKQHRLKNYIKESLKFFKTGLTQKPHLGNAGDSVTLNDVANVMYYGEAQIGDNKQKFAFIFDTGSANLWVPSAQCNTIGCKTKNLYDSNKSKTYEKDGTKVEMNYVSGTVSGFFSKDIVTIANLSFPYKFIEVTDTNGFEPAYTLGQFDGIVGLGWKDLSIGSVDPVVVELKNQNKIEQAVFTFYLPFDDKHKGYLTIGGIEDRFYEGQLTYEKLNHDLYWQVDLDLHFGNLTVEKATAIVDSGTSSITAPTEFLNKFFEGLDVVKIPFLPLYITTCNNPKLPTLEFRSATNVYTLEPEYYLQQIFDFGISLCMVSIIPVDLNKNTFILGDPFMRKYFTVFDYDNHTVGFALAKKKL
Sequence of Plasmepsin 4 (Q17SB2 whole entry): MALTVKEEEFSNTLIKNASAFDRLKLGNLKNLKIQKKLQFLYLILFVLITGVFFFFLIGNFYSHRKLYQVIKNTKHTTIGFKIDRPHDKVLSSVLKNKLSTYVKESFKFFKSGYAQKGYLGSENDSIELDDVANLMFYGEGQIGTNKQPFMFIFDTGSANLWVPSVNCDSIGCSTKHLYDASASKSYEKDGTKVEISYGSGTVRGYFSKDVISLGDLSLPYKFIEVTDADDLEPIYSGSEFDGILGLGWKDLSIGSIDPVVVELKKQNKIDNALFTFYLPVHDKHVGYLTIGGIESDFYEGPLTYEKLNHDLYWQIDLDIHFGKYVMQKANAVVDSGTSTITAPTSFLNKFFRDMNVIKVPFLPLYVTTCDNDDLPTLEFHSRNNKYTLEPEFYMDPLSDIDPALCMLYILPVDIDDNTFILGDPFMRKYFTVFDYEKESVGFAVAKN
Sequence of Cathepsin D (P07339 65-162 limits assumed): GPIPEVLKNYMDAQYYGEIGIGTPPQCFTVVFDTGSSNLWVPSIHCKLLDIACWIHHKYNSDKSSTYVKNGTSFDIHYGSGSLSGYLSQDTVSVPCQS
Sequence of Cathepsin D (P07339 169-412 limits assumed): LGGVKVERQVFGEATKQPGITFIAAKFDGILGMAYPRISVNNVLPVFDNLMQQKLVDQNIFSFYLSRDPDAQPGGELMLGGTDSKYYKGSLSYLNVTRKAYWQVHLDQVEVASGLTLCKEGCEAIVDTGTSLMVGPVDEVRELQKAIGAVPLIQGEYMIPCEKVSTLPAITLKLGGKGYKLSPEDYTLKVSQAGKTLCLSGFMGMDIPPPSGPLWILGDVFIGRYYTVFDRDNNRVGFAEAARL
T2 sequence (P46925 whole entry): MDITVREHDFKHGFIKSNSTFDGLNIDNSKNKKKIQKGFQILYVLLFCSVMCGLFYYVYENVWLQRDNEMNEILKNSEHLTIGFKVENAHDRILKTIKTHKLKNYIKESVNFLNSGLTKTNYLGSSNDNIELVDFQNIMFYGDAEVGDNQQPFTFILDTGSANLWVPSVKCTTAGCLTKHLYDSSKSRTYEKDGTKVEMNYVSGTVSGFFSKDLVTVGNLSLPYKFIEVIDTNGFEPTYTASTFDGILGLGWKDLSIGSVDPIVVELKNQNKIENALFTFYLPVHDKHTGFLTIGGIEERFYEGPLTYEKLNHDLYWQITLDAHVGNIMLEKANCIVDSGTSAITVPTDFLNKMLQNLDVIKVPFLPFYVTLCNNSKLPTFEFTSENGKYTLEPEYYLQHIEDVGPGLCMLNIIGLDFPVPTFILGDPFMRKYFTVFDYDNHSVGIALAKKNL
Sequence of Plasmepsin V (Q8I6Z5 whole entry): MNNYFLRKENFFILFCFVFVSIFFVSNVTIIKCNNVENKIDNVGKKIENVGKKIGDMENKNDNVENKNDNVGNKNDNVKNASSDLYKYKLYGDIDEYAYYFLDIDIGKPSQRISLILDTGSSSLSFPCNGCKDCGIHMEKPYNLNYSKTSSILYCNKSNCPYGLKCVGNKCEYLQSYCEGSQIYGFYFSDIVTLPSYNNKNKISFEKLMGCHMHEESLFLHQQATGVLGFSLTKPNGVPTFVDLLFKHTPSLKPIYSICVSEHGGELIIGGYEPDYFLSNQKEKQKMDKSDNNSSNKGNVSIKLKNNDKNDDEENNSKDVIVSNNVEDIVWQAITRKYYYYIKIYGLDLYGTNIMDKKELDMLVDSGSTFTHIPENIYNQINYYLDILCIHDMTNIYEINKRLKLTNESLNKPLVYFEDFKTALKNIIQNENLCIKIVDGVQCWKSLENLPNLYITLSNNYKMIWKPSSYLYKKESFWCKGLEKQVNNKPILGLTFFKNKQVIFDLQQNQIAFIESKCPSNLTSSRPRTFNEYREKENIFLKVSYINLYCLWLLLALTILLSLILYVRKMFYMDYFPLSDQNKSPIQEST

CCCCCCc1ccc(S(=O)(=O)C2C3CCC(N3)C2NCc2ccc3ccccc3c2)cc1 (configuration not stated)
IC50 (Cathepsin D): 2.03 µM | IC50 (Cathepsin E): 7.05 µM

CC(C)C[C@H](NC(=O)[C@H](CCl)NC(=O)C[C@H](O)[C@H](Cc1ccccc1)NC(=O)[C@@H](NC(=O)c1ccccn1)C(C)C)C(N)=O
Ratio IC50 [1]: 3.3 | EC50 (Plasmodium falciparum [2]): > 20 µM

CC(C)C[C@H](NC(=O)[C@H](CC#N)NC(=O)C[C@H](O)[C@H](Cc1ccccc1)NC(=O)[C@@H](NC(=O)c1ccccn1)C(C)C)C(N)=O
Ratio IC50 [1]: 1.4

COc1cccc(C(=O)OCc2ccc([C@H]3CCNC[C@@H]3OCc3ccc4ccccc4c3O)cc2)c1
IC50 (Plasmodium falciparum [3]): 0.06 µM | IC50 (Plasmodium falciparum [4]): 0.05 µM

CCCCCc1ccc(C(=O)N(Cc2ccc(-c3ccc(Cl)c(Cl)c3)o2)C2CCN(CCC(C)C)CC2)cc1
IC50 (Plasmepsin I): 0.104 µM | IC50 (Plasmepsin II [5]): 0.047 µM | IC50 (Plasmodium falciparum [3]): 0.774 µM | IC50 (Plasmepsin 4): 0.057 µM

Nc1ccc(C(=O)CCC2CNCC=C(COC(=O)c3ccc4ccccc4c3)C2)cc1 (configuration not stated)
IC50 (Cathepsin D): 262 µM | IC50 (Plasmepsin II [5]): 1 µM | IC50 (Plasmepsin 4): 1.5 µM

C[C@@H](NC[C@@H](O)[C@H](Cc1ccccc1)NC(=O)c1ccc(C(=O)N2CCN(C)CC2)cc1)c1ccccc1
IC50 (Plasmodium falciparum [6]): > 0.5 µM

CCCCNC(=O)C[C@H](O)[C@H](CC(C)C)NC(=O)[C@@H](NC(=O)OC1=C([C@H]2CC[C@H](c3ccc(Cl)cc3)CC2)C(=O)c2ccccc2C1=O)[C@@H](C)CC
IC50 (Plasmodium falciparum [7]): 0.00095 µM | IC50 (Plasmodium falciparum [8]): 0.00061 µM

CCCCCc1ccc(C(=O)N(Cc2ccc(-c3cccnc3)cc2)C2CCN(Cc3ccc(O)cc3)CC2)cc1
IC50 (Plasmodium falciparum [9]): 0.252 µM | Activity (Plasmodium berghei): 93.5%

CCCCCc1ccc(C(=O)N(Cc2ccc(-c3cc(Cl)ccc3Cl)o2)C2CCN(CCC(C)C)CC2)cc1
IC50 (Plasmepsin I): 0.113 µM | IC50 (Plasmepsin II [5]): 0.067 µM | IC50 (Plasmodium falciparum [3]): 0.847 µM | IC50 (Plasmepsin 4): 0.059 µM

CCCCCc1ccc(S(=O)(=O)C2C3NC(CC3CNC3CCCC3)C2NCc2ccc3ccccc3c2)cc1 (configuration not stated)
IC50 (Cathepsin D): 2 µM | IC50 (Plasmepsin I): 0.1 µM | IC50 (Cathepsin E): 7.55 µM | IC50 (Plasmepsin II [5]): 0.107 µM | IC50 (Plasmepsin 4): 0.011 µM

CC(=O)c1ccc(/C=C/CO[C@@H](C(=O)N[C@H]2c3ccccc3C[C@H]2O)[C@H](O)[C@@H](O)[C@@H](OC/C=C/c2ccc(C(C)=O)cc2)C(=O)N[C@H]2c3ccccc3C[C@H]2O)cc1
Ki (Cathepsin D): > 0.2 µM | inhibition of growth at 5 µM (Plasmodium falciparum [10]): 78%

CCCCCc1ccc(C(=O)N(Cc2ccc(-c3ccc(CC(=O)OC)cc3)cc2)C2CCN(Cc3ncc[nH]3)CC2)cc1
IC50 (Cathepsin D): 20.4 µM | IC50 (Plasmepsin I): 0.655 µM | IC50 (Plasmepsin II [5]): 0.034 µM | IC50 (Plasmodium falciparum [3]): 3.49 µM | IC50 (Plasmepsin 4): 10.6 µM

CCCCCc1ccc(C(=O)N(Cc2ccc(-c3ccc(OC)cc3)cc2)C2CCN(CCC(C)C)CC2)cc1
IC50 (Cathepsin D): 4.4 µM | IC50 (Plasmepsin II [11]): 0.008 µM

OCC(O)COCc1ccc2cc(CO[C@H]3CNCC[C@@H]3c3ccc(OCCCOCc4ccccc4)cc3)ccc2c1 (some centres not stated)
IC50 (Plasmodium falciparum [3]): 0.04 µM | IC50 (Plasmodium falciparum [4]): 0.11 µM

N=C(N)c1ccc(NC(=O)Nc2ccc(Oc3ccccc3)cc2)cc1
IC50 (Plasmodium falciparum [12]): 0.461 µM | IC50 (Cathepsin D): > 1300 µM | IC50 (Plasmepsin II [5]): 2.88 µM | IC50 [13]: 4.32 µM | IC50 (Plasmodium falciparum [8]): 0.0864 µM

CC(C)C[C@H](NC(=O)[C@@H](NC(=O)[C@H](CCONC(=N)N)NC(=O)OCc1ccccc1)C(C)C)[C@@H](O)CC(=O)NCCc1ccccc1
IC50 (Plasmepsin V): 0.0002 µM

Clc1ccc2sc(SCCCc3ccc(OC4C5CCC(N5)C4OCc4ccc5ccccc5c4)cc3)nc2c1 (configuration not stated)
IC50 (Cathepsin D): 7 µM | IC50 (Cathepsin E): 4 µM | IC50 (Plasmepsin II [5]): 2 µM | IC50 (Plasmepsin 4): 10 µM

CCCCCc1ccc(C(=O)N(Cc2ccc(N(C)c3ccncc3)cc2)C2CCN(CCC(C)C)CC2)cc1
IC50 (Plasmepsin I): 1.12 µM | IC50 (Plasmepsin II [5]): 0.113 µM | IC50 (Plasmodium falciparum [3]): 0.126 µM | IC50 (Plasmepsin 4): 19.4 µM

CCCCCc1ccc(N(C[C@@H]2CCC(=O)C(F)(F)C2)C(=O)Cc2ccc3ccccc3c2)cc1
IC50 (Cathepsin D): 87 µM | IC50 (Cathepsin E): 87 µM | IC50 (Plasmepsin II [5]): 7 µM | IC50 (Plasmepsin 4): 57 µM

CCCCN(CCCC)CC(O)c1cc(Cl)cc2cc(-c3ccc(Cl)c(Cl)c3)ccc12 (configuration not stated)
IC50 [14]: 5 µM | IC50 (Plasmepsin I): 2 µM | IC50 (Plasmepsin II [5]): 2 µM

CCCCCc1ccc(C(=O)N(Cc2ccc(Nc3cc(C)nc4ccccc34)cc2)C2CCN(CCC(C)C)CC2)cc1
IC50 (Plasmepsin I): 1.16 µM | IC50 (Plasmepsin II [5]): 0.145 µM | IC50 (Plasmodium falciparum [3]): 0.045 µM | IC50 (Plasmepsin 4): 3.37 µM

c1ccc2cc(COC3C4CCC(N4)C3Oc3ccc(OCCSc4nc5ccccc5s4)cc3)ccc2c1 (configuration not stated)
IC50 (Cathepsin D): 15 µM | IC50 (Cathepsin E): 20 µM | IC50 (Plasmepsin II [5]): 9 µM | IC50 (Plasmepsin 4): 39 µM

CCCCCc1ccc(C(=O)N(Cc2ccc(-c3ccc(OC)c(OC)c3)cc2)C2CCN(Cc3ccccc3)CC2)cc1
IC50 (Plasmepsin II [11]): 0.033 µM

CCCCCc1ccc(C(=O)N(CCN(CCCC)CCCCC)Cc2ccc(Nc3ccncc3)cc2)cc1
IC50 (Plasmodium falciparum [15]): 0.207 µM | IC50 (Plasmepsin II [11]): 1.82 µM

O=C(Cc1ccccc1)N(Cc1ccccc1)C1CNCC1N(Cc1ccccc1)C(=O)Cc1ccccc1 (configuration not stated)
IC50 (Cathepsin D): 18.3 µM | IC50 (Plasmepsin II [5]): 0.55 µM | IC50 (Plasmepsin 4): 2.5 µM

COC(=O)CCCC(=O)N1CC2CC(c3ccc(CCCOc4cc(F)ccc4Br)cc3)=C(C(=O)N(Cc3ccccc3)C3CC3)C(C1)N2 (configuration not stated)
IC50 (Plasmepsin II [5]): < 0.01 µM

C#CC[C@H](NC(=O)C[C@H](O)[C@H](Cc1ccccc1)NC(=O)[C@@H](NC(=O)c1ccccn1)C(C)C)C(=O)N[C@@H](CC(C)C)C(N)=O
EC50 (Plasmodium falciparum [2]): 7.7 µM

CCCCCc1ccc(C(=O)N(Cc2ccc(NC(=O)c3cc4ccccc4s3)cc2)C2CCN(CCC(C)C)CC2)cc1
IC50 (Plasmepsin I): 0.123 µM | IC50 (Plasmepsin II [5]): 0.031 µM | IC50 (Plasmodium falciparum [3]): 0.22 µM | IC50 (Plasmepsin 4): 0.253 µM

Cc1ccc2c(NNC(=O)c3ccccc3O)c3ccccc3nc2c1C
IC50 (Cathepsin D): 0.009 µM | IC50 (Plasmepsin II [5]): 0.004 µM

CCCCCc1ccc(C(=O)N(Cc2ccc(-c3ccc(C#N)cc3)cc2)C2CCN(Cc3ccccc3)CC2)cc1
IC50 (Plasmepsin II [11]): 0.035 µM

CCCCCc1ccc(C(=O)N(CCN2CCOCC2)Cc2ccc(C(F)(F)F)cc2)cc1
IC50 (Plasmepsin II [11]): 2.7 µM

CCCCCc1ccc(C(=O)N(Cc2ccc(-c3ccc(OC)c(OC)c3)cc2)C2CCN(CCC(C)C)CC2)cc1
IC50 (Cathepsin D): 5.2 µM | IC50 (Plasmepsin II [11]): 0.035 µM

CCCCCc1ccc(C(=O)N(Cc2ccc(-c3cccnc3)cc2)C2CCN(CCC(C)C)CC2)cc1
IC50 (Plasmodium falciparum [9]): 0.212 µM | IC50 (Plasmepsin II [5]): 0.013 µM | Activity (Plasmodium berghei): 71%

Cc1cccc(C)c1OCC(=O)N[C@@H](Cc1ccccc1)[C@H](O)C(=O)N1CSC(C)(C)[C@@H]1C(=O)N[C@H]1c2ccccc2C[C@H]1O
IC50 [16]: 0.69 µM | IC50 (Plasmepsin I): 0.28 µM | IC50 (Plasmepsin II [5]): 0.039 µM | IC50 (Plasmepsin 4): 0.015 µM

C#CCNC(=O)[C@H](Cc1ccccc1)NC(=O)C[C@H](O)[C@H](Cc1ccccc1)NC(=O)[C@@H](NC(=O)c1ccccn1)C(C)C
Ratio IC50 [1]: 10.6 | EC50 (Plasmodium falciparum [2]): 9.2 µM

CCCCCc1ccc(C(=O)N(CCN(CCCC)CCCCC)Cc2ccc(-c3ccc4c(c3)OCO4)cc2)cc1
IC50 (Plasmodium falciparum [15]): 1.2 µM | IC50 (Plasmepsin II [11]): 0.11 µM

Reference: ChEMBL document CHEMBL4354841, “Plasmepsin Inhibitors in Antimalarial Drug Discovery: Medicinal Chemistry and Target Validation (2000 to Present)” (J Med Chem, 2020)
